Results from patent publication US20200341000A1, “METHOD OF SCREENING COMPOUNDS FOR TREATING CNS DISORDERS” (SAGE THERAPEUTICS, INC., priority 2017, published 2020).
Read-outs that look alike come from different tables or passages of the source.

What was measured:
[1] = system: GABA receptor trafficking; assay: GABA receptor trafficking measured by GABAergic current density (FIG. 14); assay type: cell-based; settings: measured by the GABAergic current density
Source text: As shown in above examples, not all neurosteroids can modulate GABA receptor trafficking.

α1β2γ2 GABAA receptors = target: T1, α1β2γ2 GABAA receptors (Homo sapiens, UniProt P14867+P18507+P47870); assay: Whole-cell patch clamp, potentiation of GABA EC20 currents at recombinant synaptic-type receptors (LTK cells); assay type: cell-based; settings: n = 3
T1 construct: expressed in transfected cells
Procedure: (§1) Cellular electrophysiology was used to measure the pharmacological properties of ALLO, ganaxolone and SGE-516 in heterologous cell systems. Compounds were tested for their ability to affect GABA mediated currents at a submaximal agonist dose (GABA EC20=2 μM).
(§2) LTK cells were stably transfected with the α1β2γ2 subunits of the GABA receptor and CHO cells are transiently transfected with the α4β3γ subunits via the Lipofecatamine method. Cells were passaged at a confluence of about 50-80% and then seeded onto 35 mm sterile culture dishes containing 2 ml culture complete medium without antibiotics or antimycotics. Cells were cultivated at a density that enabled the recording of single cells without visible connections to other cells.
(§3) Whole-cell currents were measured with HEKA EPC-10 amplifiers using PatchMaster software. Bath solution for all experiments contained (in mM): NaCl 137, KCl 4, CaCl2 1.8, MgCl2 1, HEPES 10, D-Glucose 10, pH 7.4 with NaOH. Intracellular (pipette) solution contained (in mM): KCl 130, MgCl2 1, Mg-ATP 5, HEPES 10, EGTA 5, pH 7.2 with KOH. During experiments, cells and solutions were maintained at room temperature (19° C.-30° C.). For manual patchclamp recordings, cell culture dishes were placed on the dish holder of the microscope and continuously perfused (1 ml/min) with bath solution. After formation of a Gigaohm seal between the patch electrode and the cell (pipette resistance range: 2.5 MΩ-6.0MΩ; seal resistance range: >1 GΩ) the cell membrane across the pipette tip was ruptured to assure electrical access to the cell interior (whole-cell patch configuration).
(§4) Cells were voltage-clamped at a holding potential of −80 mV. GABAA receptors were activated by 2 μM GABA and compounds were sequentially applied at increasing concentrations for 30 s prior to a 2 s application of GABA. GABA and compounds were applied to cells via the Dynaflow perfusion system (Cellectricon, Sweden). Test compounds were dissolved in DMSO to form 10 mM stock solution and serially diluted to 0.01, 0.1, 1, and 10 μM in bath solution. […] All concentrations of test compound were tested on each cell. The relative percentage potentiation was defined as the peak amplitude in response to GABA EC20 in the presence of test compound divided by the peak amplitude in response to GABA EC20 alone, multiplied by 100.
(§5) ALLO and ganaxolone are known PAMs of both synaptic and extrasynaptic GABAAR-mediated currents. […] The α1β2γ2 or α4β3δ subunit combinations were chosen as representatives of typical synaptic and extrasynaptic GABAA receptors respectively.

[2] = system: GABAA receptor β3 subunit S408/9 phosphorylation; assay: Immunoblot of β3 S408/9 phosphorylation in hippocampal slices; assay type: cell-based, mice; settings: 100 nM, 20 min, acute hippocampal slices
Procedure: Hippocampi were dissected out of acute slices from 8 to 12 week old C57/B16 mice and lysed with phosphate buffer including: 20 mM Tris-HCl, 150 mM NaCl, 5 mM EDTA, 10 mM NaF, 2 mM Na3VO4, 10 mM pyrophosphate, 0.1% SDS and 1% Triton after drug treatment. The β3 subunit was isolated using immunoprecipitation with β3 antibodies, after correction for protein content and the specific activity of labeling. Results were attained by SDS/PAGE followed by autoradiography (Abramian et al., 2010). For biotinylation experiments hippocampi were dissected out of acute slices from 8 to 12 week old C57/B16 mice and incubated in artificial cerebrospinal fluid (ACSF) described above at 30° C. for 1 h for recovery before experimentation. Slices were then placed on ice and incubated for 30 min with 1 mg/mL NHS-SS-biotin (Pierce). Excess biotin was removed by a 50 mM glycine quenching buffer, followed by washing of slices three times in ice-cold ACSF. The tissue was snap frozen on dry ice for 5 min, thawed at 4° C. and lysed. The lysates were solubilized with 2% Triton at 4° C. on a rotating wheel for 1 h. The insoluble material was removed by centrifugation, and 350-500 μg of protein lysate were incubated with NeutrAvidin beads (Pierce) for 18-24 h at 4° C. Bound material was eluted with sample buffer and subjected to SDS/PAGE and then immunoblotted with the indicated antibodies. Blots were then quantified using the CCD-based ChemiDoc XRS ? system. Antibodies against the β3 subunit and the phospho-β3 antibody were generated and verified by the laboratory of S.J.M. (Vien et al., 2015).
To produce antibodies specific for phosphorylated S443, rabbits were injected with a synthetic peptide corresponding to residues […] of the murine α4 subunit in which the serine residue corresponding to S443 was chemically phosphorylated; […]. Hippocampal slices were treated with vehicle (Con), or SGE-516 for 20 min. Slices were immunoblotted with pS408/9, β3, or actin antibodies. The ratio of pS408/9/β3 immunoreactivity was then normalized to control slices (100%=the line).
Hippocampal slices were treated with 100 nM ALLO or P4 (progesterone), and S408/9 phosphorylation was then determined as detailed above, n=4 slices (FIG. 18D). Hippocampal slices were treated with 100 nM ORG (FIG. 18E). S408/9 phosphorylation was examined using immunoblotting.

α4β3δ GABAA receptors = target: T2, α4β3δ GABAA receptors (Homo sapiens, UniProt O14764+P28472+P48169); assay: Whole-cell patch clamp, potentiation of GABA EC20 currents at recombinant extrasynaptic-type receptors (CHO cells); assay type: cell-based
T2 construct: expressed in transfected cells; host or cells: CHO cells (transient transfection, Lipofectamine)
Procedure: as §1, §2, §3, §4, §5

[3] = relative percentage potentiation of GABA EC20 peak current
[4] = relative percentage potentiation of GABA EC20 peak current, n = 3

T1 sequence (P14867 28-456): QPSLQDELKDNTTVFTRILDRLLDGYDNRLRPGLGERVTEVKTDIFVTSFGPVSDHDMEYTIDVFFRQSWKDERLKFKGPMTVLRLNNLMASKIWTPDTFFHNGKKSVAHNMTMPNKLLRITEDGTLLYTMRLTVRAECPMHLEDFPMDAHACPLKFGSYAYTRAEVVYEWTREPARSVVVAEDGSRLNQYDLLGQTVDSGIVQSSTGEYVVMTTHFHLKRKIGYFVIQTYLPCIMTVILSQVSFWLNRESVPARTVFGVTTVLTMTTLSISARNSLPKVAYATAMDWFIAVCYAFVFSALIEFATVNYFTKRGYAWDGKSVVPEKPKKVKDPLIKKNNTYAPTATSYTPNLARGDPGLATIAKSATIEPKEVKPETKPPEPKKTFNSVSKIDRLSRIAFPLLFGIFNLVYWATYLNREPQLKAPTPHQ
T1 sequence (P47870 25-512 limits assumed): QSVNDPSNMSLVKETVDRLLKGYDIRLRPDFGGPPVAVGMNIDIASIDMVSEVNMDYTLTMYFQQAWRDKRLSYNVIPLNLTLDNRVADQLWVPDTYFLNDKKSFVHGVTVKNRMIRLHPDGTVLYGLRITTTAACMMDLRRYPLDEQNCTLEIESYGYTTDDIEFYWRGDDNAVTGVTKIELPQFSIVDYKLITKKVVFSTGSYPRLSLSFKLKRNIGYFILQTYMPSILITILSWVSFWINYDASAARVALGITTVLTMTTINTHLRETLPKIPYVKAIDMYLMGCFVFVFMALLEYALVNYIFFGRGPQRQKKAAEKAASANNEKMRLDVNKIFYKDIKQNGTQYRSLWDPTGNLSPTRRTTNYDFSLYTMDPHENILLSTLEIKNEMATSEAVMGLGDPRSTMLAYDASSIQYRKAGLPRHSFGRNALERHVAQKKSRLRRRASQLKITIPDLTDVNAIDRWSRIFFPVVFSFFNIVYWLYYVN
T1 sequence (P18507 40-475): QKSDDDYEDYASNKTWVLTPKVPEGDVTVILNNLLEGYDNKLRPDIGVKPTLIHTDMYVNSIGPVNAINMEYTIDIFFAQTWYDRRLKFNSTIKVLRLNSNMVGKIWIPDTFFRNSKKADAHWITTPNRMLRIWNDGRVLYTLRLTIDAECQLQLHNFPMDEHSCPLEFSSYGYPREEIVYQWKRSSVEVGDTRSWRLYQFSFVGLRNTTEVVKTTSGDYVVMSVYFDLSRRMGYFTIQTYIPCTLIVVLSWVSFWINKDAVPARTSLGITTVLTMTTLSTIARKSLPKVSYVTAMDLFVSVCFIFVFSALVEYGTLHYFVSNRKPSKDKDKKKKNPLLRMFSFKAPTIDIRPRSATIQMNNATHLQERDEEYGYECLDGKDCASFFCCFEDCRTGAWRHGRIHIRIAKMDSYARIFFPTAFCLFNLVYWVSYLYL
T2 sequence (P48169 36-554): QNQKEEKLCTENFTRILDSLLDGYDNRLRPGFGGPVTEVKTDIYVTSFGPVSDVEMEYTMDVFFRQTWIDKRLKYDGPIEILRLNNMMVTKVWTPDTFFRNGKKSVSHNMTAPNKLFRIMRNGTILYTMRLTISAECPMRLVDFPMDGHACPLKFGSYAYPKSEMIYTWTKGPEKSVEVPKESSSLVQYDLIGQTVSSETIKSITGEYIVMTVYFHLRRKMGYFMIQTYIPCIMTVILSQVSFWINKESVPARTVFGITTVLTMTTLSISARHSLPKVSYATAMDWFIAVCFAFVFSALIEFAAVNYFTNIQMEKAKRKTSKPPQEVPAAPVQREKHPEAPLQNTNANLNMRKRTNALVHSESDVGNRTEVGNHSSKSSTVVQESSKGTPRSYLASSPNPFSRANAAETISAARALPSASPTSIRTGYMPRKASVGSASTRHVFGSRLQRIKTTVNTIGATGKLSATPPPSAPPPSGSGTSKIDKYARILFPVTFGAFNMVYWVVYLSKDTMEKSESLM
T2 sequence (P28472 26-473): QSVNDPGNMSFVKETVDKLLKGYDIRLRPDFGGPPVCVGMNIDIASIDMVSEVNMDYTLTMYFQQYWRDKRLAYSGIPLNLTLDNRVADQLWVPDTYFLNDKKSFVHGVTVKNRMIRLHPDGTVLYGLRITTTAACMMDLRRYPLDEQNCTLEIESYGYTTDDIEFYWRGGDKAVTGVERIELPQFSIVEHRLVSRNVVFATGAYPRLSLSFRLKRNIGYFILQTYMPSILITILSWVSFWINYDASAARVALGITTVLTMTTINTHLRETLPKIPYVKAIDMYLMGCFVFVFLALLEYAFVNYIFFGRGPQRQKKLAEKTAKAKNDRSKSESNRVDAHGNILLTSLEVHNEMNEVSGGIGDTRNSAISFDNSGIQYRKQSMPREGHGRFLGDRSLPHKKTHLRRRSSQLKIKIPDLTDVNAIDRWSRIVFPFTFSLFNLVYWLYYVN
T2 sequence (O14764 25-452): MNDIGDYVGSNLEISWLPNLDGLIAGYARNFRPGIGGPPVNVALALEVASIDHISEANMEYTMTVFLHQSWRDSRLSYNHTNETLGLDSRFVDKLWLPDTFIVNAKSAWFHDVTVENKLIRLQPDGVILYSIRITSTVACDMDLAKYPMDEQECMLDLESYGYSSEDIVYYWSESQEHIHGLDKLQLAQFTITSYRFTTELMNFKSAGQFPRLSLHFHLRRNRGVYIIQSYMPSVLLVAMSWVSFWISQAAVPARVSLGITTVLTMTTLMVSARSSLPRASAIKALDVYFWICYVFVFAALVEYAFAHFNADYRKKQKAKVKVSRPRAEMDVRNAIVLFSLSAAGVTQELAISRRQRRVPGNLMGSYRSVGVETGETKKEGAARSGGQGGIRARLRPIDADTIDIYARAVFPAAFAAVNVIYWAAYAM

Compound | modulation of GABA receptor trafficking [1] | EC50 (α1β2γ2 GABAA receptors; EC50, potentiation of GABA current, α1β2γ2, GABA EC20 (2 μM)) [nM] | Emax (α1β2γ2 GABAA receptors; LTK, relative percentage potentiation of GABA EC20 peak current, read-out: Emax ± S.E.M., α1β2γ2) [%] | Emax ± S.E.M., α1β2γ2 (α1β2γ2 GABAA receptors; [3]) [%] | β3 S408/409 phosphorylation (p-β3/T-β3) [2] | EC50 (α4β3δ GABAA receptors) [nM] | Emax (α4β3δ GABAA receptors; CHO, relative percentage potentiation of GABA EC20 peak current, n = 3, read-out: Emax ± S.E.M., α4β3δ) [%] | Emax ± S.E.M., α4β3δ (α4β3δ GABAA receptors; [4]) [%] | pEC50 ± S.E.M., α1β2γ2 (α1β2γ2 GABAA receptors; GABA EC20 (2 μM)) | EC50 (α1β2γ2 GABAA receptors; GABA EC20 (2 μM), read-out: EC50, potentiation of GABA current, α1β2γ2) [nM] | pEC50 ± S.E.M., α4β3δ (α4β3δ GABAA receptors; GABA EC20 (2 μM), n = 3) | EC50 (α4β3δ GABAA receptors; GABA EC20 (2 μM), n = 3, read-out: EC50, potentiation of GABA current, α4β3δ) [nM]
CC(=O)[C@H]1CC[C@H]2[C@@H]3CC[C@H]4C[C@H](O)CC[C@]4(C)[C@H]3CC[C@]12C [ALLO, Allopregnanolone] | modulated GABA receptor trafficking | 115 | 229 | 229 ± 19 | increases | 57 | 426 | 426 ± 42 |  |  |  | 
C[C@@]1(O)CC[C@H]2[C@H](CC[C@@H]3[C@@H]2CC[C@]2(C)[C@@H](C(=O)Cn4nccn4)CC[C@@H]32)C1 [SGE-516] | modulated GABA receptor trafficking |  |  | 219 | increases |  |  | 505 ± 19 | 7.2 ± 0.3 | 61 | 6.7 ± 0.1 | 193
